Consider six compounds from US10005818B2, “Derivative peptide compounds and methods of use” (REALTA HOLDINGS, LLC, priority 2010, dated 2018).

Series [1] relates to complement activation in factor B-depleted human sera. In kind it is biochemical. The method, then: Peptides were diluted to 0.77 mM in factor B-depleted human sera (Complement Technologies, Inc.) and incubated for 1 hour at 37° C. These peptides were then diluted with GVBS^++ to equal 2.5/s serum, of which 0.25 ml was combined with 0.4 ml of GVBS^++ and 0.1 ml of sensitized sheep red blood cells (RBCs) and again incubated for 1 hour at 37° C. The procedure was stopped by the addition of 4.0 ml of GVBS^−−, centrifuged for 5 minutes at 1,620×g, and the absorbance of the supernatants was read at 412 nm in a spectrophotometer. The percent lysis of each sample was standardized to that of the serum only control.
The final concentration of peptide in factor B-depleted serum was 0.77 mM. Each peptide was evaluated in triplicate and the mean values are reported. […] In the hemolytic assay, soluble peptides are standardized to water and insoluble peptides standardized to DMSO.
Polar Assortant peptides were serially diluted in undiluted factor B-depleted human sera (Complement Technologies, Inc.) and incubated for 1 hour at 37° C. Water, GVBS^++ and DMSO were included as controls. These peptides were then diluted with GVBS^++ to equal 2.5/s serum, of which 0.25 ml was combined with 0.4 ml of GVBS^++ and 0.1 ml of sensitized sheep red blood cells (RBCs) and again incubated for 1 hour at 37° C. The procedure was stopped by the addition of 4.0 ml of GVBS^−−, centrifuged for 5 minutes at 1,620×g, and the absorbance of the supernatants was read at 412 nm in a spectrophotometer. The percent lysis of each sample was standardized to that of the serum only control.
The final concentration of peptide in factor B-depleted serum was 0.77 mM. […] In the hemolytic assay, soluble peptides were standardized to water and insoluble peptides standardized to DMSO.
The final concentration of peptide in factor B-depleted serum was 0.77 mM. […] In the hemolytic assay, soluble peptides are standardized to water and insoluble peptides standardized to DMSO.

A short description of series [2]: Solubility in water. In kind it is physicochemical.
The mark [3] stands for this setting: Table 7, PEGylated and sarcosine/alanine substitution peptides.
The mark [4] stands for this setting: Table 5, sarcosine substitution peptides.

Square brackets hold non-standard residues; d marks the D form. Peptide text beside a SMILES is read from it. Sar = CNCC(=O)O

On to `CC[C@H](C)[C@H](N)C(=O)N[C@@H](C)C(=O)N[C@@H](CC(C)C)C(=O)N[C@H](C(=O)N[C@@H](CC(C)C)C(=O)N[C@@H](CCC(=O)O)C(=O)N(C)CC(=O)N[C@H](C(=O)N[C@@H](CS)C(=O)N[C@@H](CS)C(=O)N(C)CC(=O)N[C@@H](CCC(=O)O)C(=O)N[C@@H](CCCNC(=N)N)C(=O)N[C@@H](C)C(=O)N[C@@H](C)C(=O)O)[C@@H](C)CC)[C@@H](C)CC` [Peptide Q11SarP7Sar, IALILE(Sar)ICC(Sar)ERAA] (H-IALILE[Sar]ICC[Sar]ERAA-OH; N-terminus and C-terminus assumed), for which the “Hemolysis (%)” value in series [1] is 3.22%. Also, in series [2] (setting [3]), the Solubility in water entry was “Yes”.

Consider `CC[C@H](C)[C@H](N)C(=O)N[C@@H](C)C(=O)N[C@@H](CC(C)C)C(=O)N[C@H](C(=O)N[C@@H](CC(C)C)C(=O)N[C@@H](CCC(=O)O)C(=O)N1CCC[C@H]1C(=O)N[C@H](C(=O)N[C@@H](CS)C(=O)N[C@@H](CS)C(=O)N[C@@H](CCC(N)=O)C(=O)N[C@@H](CCC(=O)O)C(=O)N[C@@H](CCCNC(=N)N)C(=O)N[C@@H](C)C(=O)N(C)CC(=O)O)[C@@H](C)CC)[C@@H](C)CC` [PA-A15Sar], for which the “Hemolysis (%)” value in series [1] was 21.68%. The Solubility in water entry in series [2] (setting [4]) is given as “No”.

`CC[C@H](C)[C@H](N)C(=O)N[C@@H](C)C(=O)N[C@@H](CC(C)C)C(=O)N(C)CC(=O)N[C@@H](CC(C)C)C(=O)N[C@@H](CCC(=O)O)C(=O)N1CCC[C@H]1C(=O)N[C@H](C(=O)N[C@@H](CS)C(=O)N[C@@H](CS)C(=O)N[C@@H](CCC(N)=O)C(=O)N[C@@H](CCC(=O)O)C(=O)N[C@@H](CCCNC(=N)N)C(=O)N[C@@H](C)C(=O)N[C@@H](C)C(=O)O)[C@@H](C)CC` [PA-I4Sar] (H-IAL[Sar]LEPICCQERAA-OH; N-terminus and C-terminus assumed): the “Hemolysis (%)” value in series [1] was determined as 93.19%. Moreover, the Solubility in water entry in series [2] (setting [4]) is given as “Yes”.

Consider `CC[C@H](C)[C@H](N)C(=O)N[C@@H](C)C(=O)N[C@@H](CC(C)C)C(=O)N[C@H](C(=O)N[C@@H](CC(C)C)C(=O)N[C@@H](C)C(=O)N1CCC[C@H]1C(=O)N[C@H](C(=O)N(C)CC(=O)N[C@@H](CS)C(=O)N[C@@H](CCC(N)=O)C(=O)N[C@@H](C)C(=O)N[C@@H](CCCNC(=N)N)C(=O)N[C@@H](C)C(=O)N[C@@H](C)C(=O)O)[C@@H](C)CC)[C@@H](C)CC` [Peptide E6AE12AC9Sar] (H-IALILAPI[Sar]CQARAA-OH), for which the “Hemolysis (%)” value in series [1] was 2.99%. The Solubility in water result in series [2] (setting [3]) was “No”.

Take `CC[C@H](C)[C@H](N)C(=O)N[C@@H](C)C(=O)N[C@@H](CC(C)C)C(=O)N[C@H](C(=O)N[C@@H](CC(C)C)C(=O)N[C@@H](CCC(=O)O)C(=O)N1CCC[C@H]1C(=O)N[C@H](C(=O)N[C@@H](CS)C(=O)N(C)CC(=O)N[C@@H](CCC(N)=O)C(=O)N[C@@H](CCC(=O)O)C(=O)N[C@@H](CCCNC(=N)N)C(=O)N[C@@H](C)C(=O)N[C@@H](C)C(=O)O)[C@@H](C)CC)[C@@H](C)CC` [PA-C10Sar]: in series [1], the “Hemolysis (%)” value stood at 56.18%. Moreover, the Solubility in water result in series [2] (setting [4]) is “No”.

`CC[C@H](C)[C@H](N)C(=O)N[C@@H](C)C(=O)N[C@@H](CC(C)C)C(=O)N[C@H](C(=O)N[C@@H](CC(C)C)C(=O)N[C@@H](CCC(=O)O)C(=O)N1CCC[C@H]1C(=O)N[C@H](C(=O)N[C@@H](CS)C(=O)N[C@@H](CS)C(=O)N[C@@H](CCC(N)=O)C(=O)N[C@@H](CCC(=O)O)C(=O)N(C)CC(=O)N[C@@H](C)C(=O)N[C@@H](C)C(=O)O)[C@@H](C)CC)[C@@H](C)CC` [PA-R13Sar]: the “Hemolysis (%)” value in series [1] worked out at 3.42%. In addition, in series [2] (setting [4]), the Solubility in water entry is on record as “No”.
